How the values were obtained:
[1] = biological target: T1, μ-opiate receptor (Homo sapiens, UniProt P35372); experiment: biochemical; settings: for Kb: Ke μ-Antagonism
[2] = biological target: κ-opioid receptor (Homo sapiens, UniProt P41145); experiment: [35S]GTP-γ-S binding, κ-antagonism; format: biochemical; settings: n=3; for Kb: Ke κ-Antagonism
[3] = biological target: T1, μ-opiate receptor; format: binding; settings: read-out: Ki μ
[4] = biological target: κ-opiate receptor (Homo sapiens, UniProt P41145); experiment: [3H] opioid receptor binding, κ; settings: read-out: Ki κ; CHO cells stably transfected, expressing κ-opiate receptor; n=3
κ-opiate receptor, sequence (P41145 whole entry): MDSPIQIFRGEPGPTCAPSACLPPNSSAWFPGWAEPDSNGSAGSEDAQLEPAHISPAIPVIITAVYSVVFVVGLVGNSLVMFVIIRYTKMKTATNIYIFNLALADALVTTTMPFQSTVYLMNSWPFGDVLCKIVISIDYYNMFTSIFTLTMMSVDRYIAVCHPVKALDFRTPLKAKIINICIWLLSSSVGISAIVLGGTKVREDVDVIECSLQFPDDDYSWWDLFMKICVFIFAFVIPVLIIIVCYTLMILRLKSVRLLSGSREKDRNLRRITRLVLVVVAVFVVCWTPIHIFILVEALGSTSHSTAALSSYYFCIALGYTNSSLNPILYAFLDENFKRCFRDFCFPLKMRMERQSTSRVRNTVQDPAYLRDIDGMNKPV

T1 sequence (P35372 whole entry): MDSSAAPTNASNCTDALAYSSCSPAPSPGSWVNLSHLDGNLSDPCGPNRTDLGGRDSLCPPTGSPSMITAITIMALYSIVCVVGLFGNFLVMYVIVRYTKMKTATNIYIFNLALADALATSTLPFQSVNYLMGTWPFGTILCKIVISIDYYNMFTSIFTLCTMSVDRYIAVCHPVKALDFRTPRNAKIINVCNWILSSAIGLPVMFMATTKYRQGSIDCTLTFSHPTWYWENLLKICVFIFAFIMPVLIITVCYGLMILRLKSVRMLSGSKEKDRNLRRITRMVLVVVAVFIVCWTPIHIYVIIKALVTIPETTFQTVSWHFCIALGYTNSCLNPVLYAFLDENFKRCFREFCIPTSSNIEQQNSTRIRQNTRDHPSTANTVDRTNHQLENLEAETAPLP
κ-opioid receptor, sequence (P41145 whole entry): as the sequence (P41145 whole entry) above

Molecule | Kb [1] [nM] | Kb [2] [nM] | Ki [3] [nM] | Ki [4] [nM] | Ke μ-Antagonism [1] [nM] | Ke κ-Antagonism [2] [nM]
Oc1ccc2c(c1)[C@@]13CCN(CCc4ccccc4)[C@@H](CC[C@H]1O2)C3 [Compound 16b, (4S,6aR,11bS)-2,3,4,5,6,6a-Hexahydro-3-phenethyl-1H-4,11b-methanobenzofuro[3,2-d]azocine-10-ol] | 227 ± 33 | 103 ± 17 |  |  |  | 
Oc1cccc2c1O[C@H]1CC[C@@H]3C[C@]21CCN3CCc1ccccc1 (stereo in doubt) [Compound 19b, (4R,6aS,11bR)-2,3,4,5,6,6a-Hexahydro-3-phenethyl-1H-4,11b-methanobenzofuro[3,2-d]azocine-8-ol] | 31 ± 6 | 22 ± 6 |  |  |  | 
(4S,6aR,11bS)-2,3,4,5,6,6a-hexahydro-3-phenethyl-1H-4,11b-methanobenzofuro[3,2-d]azocine-8-ol [Compound 19a] |  |  | 384 ± 38 | 367 ± 19 | 328 ± 67 | 761 ± 191
Oc1cccc2c1O[C@@H]1CC[C@@H]3C[C@]21CCN3CCc1ccccc1 (racemic) [rac 5, rac-(4R,6aR,11bR)-2,3,4,5,6,6a-hexahydro-3-phenethyl-1H-4,11b-methanobenzofuro[3,2-d]azocin-8-ol] | 274 ± 49 | 163 ± 29 |  |  |  | 
Oc1ccc2c(c1)[C@]13CCN(CCc4ccccc4)[C@H](CC[C@@H]1O2)C3 [Compound 16a, (4R,6aS,11bR)-2,3,4,5,6,6a-Hexahydro-3-phenethyl-1H-4,11b-methanobenzofuro[3,2-d]azocine-10-ol] | 47 ± 9 | 100 ± 3 |  |  |  | 
Oc1ccc2c(c1)[C@]13CCN(CCc4ccccc4)[C@H](CC[C@H]1O2)C3 (racemic) [rac 10, rac-(4R,6aR,11bR)-2,3,4,5,6,6a-hexahydro-3-phenethyl-1H-4,11b-methanobenzofuro[3,2-d]azocin-10-ol] |  | 46 ± 9 |  |  |  | 

— article PMC3145320 (Bioorganic & medicinal chemistry, 2011)
